Results on two compounds are retold here after patent publication US20230391817A1, “5ALPHA-HYDROXY-6BETA-[2-(1-H-IMIDAZOL-4-YL)-ETHYLAMINO]-CHOLESTAN-3BETA-OL ANALOGUES AND PHARMACEUTICAL COMPOSITIONS COMPRISING SAME FOR USE IN THE TREATMENT OF CANCER” (priority 2020, published 2023).

One experiment has as its system MCF-7 breast tumor cells. Put plainly: cells. The format is cell-based. The settings on record: for cell viability in MTT compared with the control: 1, 2.5 or 5 μM, 48 h; for viability at 5 µM: Homo sapiens, MCF7, 48 h, read-out: percentage of cell viability relative to the control group. The procedure:
A cell viability test was performed on MCF-7 (Michigan Cancer Foundation-7) breast tumor cells […] (ER(+) cells).
The MCF-7 cells are in a cell culture medium identical to that of Example 5 and are seeded in 12-well plates at 50 000 cells per well. 24 hours after seeding, the cells are treated with vehicle solvate comprising water and ethanol with a 1% o ratio of ethanol, 3β-fluoro-5α-hydroxy-6β-[2-(1H-imidazol-4-yl)ethylamino]cholestane, and 5α-hydroxy-6β-[2-(1H-imidazol-4-yl)ethylamino]cholestan-3β-ol at 1, 2.5 or 5 μM. The cells are observed under an inverted microscope and photographed via the microscope camera at 24 h and 48 h. The morphological changes in the cells at 1 μM are very small. […] The effects are more marked at 2.5 μM and 5 μM with an increase in the number of dead cells. […] After 24 h of treatment with 3β-fluoro-5α-hydroxy-6β-[2-(1H-imidazol-4-yl)ethylamino]-cholestane at 5 μM, 99% of the observed cells are supernatant, reflecting cell death, and 1% of the cells are adherent and show white vesicles. […] The cytostatic effect is illustrated by an inhibition of cell proliferation.
The cell viability is measured by labeling with MTT at 48 hours. This test is based on the use of the tetrazolium salt MTT (3-(4,5-dimethylthiazol-2-yl)-2,5-diphenyltetrazolium bromide). Tetrazolium is reduced by mitochondrial succinate dehydrogenase in active living cells to formazan, a purple colored precipitate. The amount of precipitate formed is proportional to the amount of living cells but also to the metabolic activity of each cell. Thus, a simple determination of the optical density at 540 nm by spectroscopy makes it possible to determine the relative amount of living and metabolically active cells. After 48 hours, the medium is aspirated, and the cells are washed with phosphate-buffered saline (PBS) and then incubated with MTT (0.5 mg/ml in PBS) for about 2 hours. The MTT solution is aspirated and the purple crystals are dissolved in dimethyl sulfoxide (DMSO). The OD (optical density) is measured at 540 nm.
The control group is prepared in a similar manner to the groups studied without the addition of the molecules studied in the present text. […] For a concentration of 5 μM, the viability is close to 0%. This reflects the ability of the compound of formula (I) to kill mammary tumor cells.

For experiment [1], the system named is murine 4T1 mammary tumor cells. Kind of experiment: Cell viability of 4T1 cells, CellTox Green Cytotoxicity Assay. The experiment is classed as cell-based. Conditions: Mus musculus, 4T1, Green Cytotoxicity Assay, 48 h; for IC50: log of IC50 in μM, read-out: Mean LogIC50 (±SEM) (converted); for pIC50: read-out: IC50. As to the method:
Cell viability tests were performed on murine 4T1 mammary tumor cells characterized as triple negative (HER2-, ER-, PR-).
For this experiment, a cell culture medium was prepared. The culture medium consisted of Dulbecco's Modified Eagle Medium (DMEM, sold by Westburg as LO BE12-604F), comprising 4.5 g/L glucose with L-glutamine, to which 10% fetal calf serum (FCS) and 50 U/ml penicillin/streptomycin are added. The 4T1 cells were introduced into this culture medium.
96-well plates were seeded with 2000 4T1 cells per well. After 72 hours (h) of culture under normal condition, i.e. in an incubator at 37° C. at […], the 4T1 cells were treated for 48 h with DX101, DX103, DX111, DX123, DX125, DX127 and DX129 at 100 nM, 1 μM, 2.5 μM and 10 μM. A control condition (CTL) is also performed in parallel using the previously described protocol without treatment with the molecules DX101, DX103, DX111, DX123, DX125, DX127 or DX129.
For the third method, the percentage viability is determined using the CellTox Green Cytotoxicity Assay kit (Promega). This assay measures cell death via a change in membrane integrity. […] Consequently, the higher the fluorescence in the wells, the greater the cell death. […] The percentage of cell death is determined using the 100% cell death control (made from untreated cells incubated in the presence of the lysis solution for 30 minutes at 37° C. prior to the addition of Celltox green reagent), and the cell viability in each well is then deduced from this percentage. The IC50 is then determined as explained previously.

For experiment [2], the system named is BT-474 human mammary tumor cells. Put plainly: Cell viability of BT-474 cells, trypan blue. Conditions: BT-474, Trypan Blue, 48 h; for Mean LogIC50 (±SEM): log of IC50 in μM; for pIC50: Homo sapiens. The format is cell-based. The procedure:
Cell viability tests were also performed on BT-474 human mammary tumor cells (characterized as triple positive HER2+, ER+, PR+). The BT-474 cells were in a cell culture medium identical to the previous example and seeded in 24-well plates at 70 000 cells per well for cell viability determination using trypan blue, or in 96-well plates at 13 000 cells per well for cell viability determination using the MTT or LDH assay. After 96 hours (h) of culture under normal conditions, i.e. in an incubator at 37° C. with […], BT-474 cells were treated for 48 h with DX101, DX103, DX105, DX111, DX123 and DX127 at 100 nM, 1 μM, 2.5 μM and 10 μM. A control is also performed using the protocol described previously without treatment with DX101, DX103, DX105, DX111, DX123 and DX127.
After a 10-minute trypsin digestion at 37° C., the cell survival was also quantified by means of a trypan blue test with automatic counting using the Biorad TC20 machine (TC20™ Automated Cell Counter). The trypan blue test is based on the integrity of cell membranes, which is disrupted in the dead cells. Trypan blue stains dead cells blue. The Biorad TC20 cell counter counts the proportion of blue and non-blue cells, and reports the percentage of cells. The percentage of viability is then determined in each well relative to the untreated cells and the IC50 is determined as explained in the preceding example. Also, the percentage viability of the BT-474 cells was determined using the MTT and LDH assay, performed as described in the preceding example.

A further experiment relates to 4T1 tumors. Kind of experiment: Tumor growth and survival in vivo, subcutaneous 4T1 tumors in Balb/c mice. Conditions: 40 mg/kg, gavage, daily; for Inhibition of tumor growth at 7 days: Balb/c mice with 4T1 tumors. As to the method:
All the animal procedures were conducted according to our institutional guidelines after approval by the ethics committee. The 4T1 cells were cultured as previously, dissociated in trypsin, washed twice with cold PBS and resuspended in 1.5 million/ml PBS. 4T1 tumors were obtained by subcutaneous transplantation of 0.150 million cells in 100 μL into the flank of female Balb/c mice (9 weeks old, […]). When the tumors reached a volume of 50-100 mm^3, the mice were gavaged with 40 mg/kg of DX101 or 40 mg/kg of DX111 or the control vehicle (water). Treatment was performed daily until the end of the experiment (tumor volume >1000 mm^3). Tumor volume was determined daily using a caliper and calculated using the formula: ½×(Length*Width^2). The percentage of tumor growth inhibition was determined using the following formula: 100×(1-(Tumor volume, day 7/tumor volume day 0)DX111)/(1-(Tumor volume, day 7/tumor volume day 0)vehicle).
The Kaplan-Meier method was used to compare animal survival.

In general, viability refers to a per cent measure of how many cells are alive, often set against a control. The pIC50 is −log10 of the IC50, conventionally taken in molar units.

pIC50: −log10 of the molar value. Where two headings read alike, the source gives them in different places.

Regarding `CC(C)CCC[C@@H](C)[C@H]1CC[C@H]2[C@@H]3C[C@@H](NCCc4c[nH]cn4)[C@@]4(O)C[C@@H](O)CC[C@]4(C)[C@H]3CC[C@]12C` [DX101, 5α-hydroxy-6β-[2-(1H-imidazol-4-yl)ethylamino]cholestan-3β-ol, reference compound], in the experiment on MCF-7 breast tumor cells, the “cell viability in MTT compared with the control” value is recorded as “dose-dependent decrease” and the viability at 5 µM was around 0%. In experiment [1], the IC50 is 2.69 µM and the pIC50 is 5.57. In experiment [2], the “Mean LogIC50 (±SEM)” value came out at 0.61 ± 0.20 and the negative-log IC50 (pIC50) is 5.39. In addition, in the experiment on 4T1 tumors, the median survival was 9 days, the “survival after 15 days of treatment” value was 0% and the “Inhibition of tumor growth at 7 days” value worked out at 48%.
As to `CC(C)CCC[C@@H](C)[C@H]1CC[C@H]2[C@@H]3C[C@@H](NCCc4c[nH]cn4)[C@@]4(O)C[C@@H](F)CC[C@]4(C)[C@H]3CC[C@]12C` [DX111, 3β-fluoro-5α-hydroxy-6β-[2-(1H-imidazol-4-yl)ethylamino]cholestane], in the experiment on MCF-7 breast tumor cells, the “cell viability in MTT compared with the control” value is given as “dose-dependent decrease” and the viability at 5 µM is around 0%. In experiment [1], the IC50 is 2.19 µM and the pIC50 is 5.66. In experiment [2], the “Mean LogIC50 (±SEM)” value is on record as 0.78 ± 0.15 and the pIC50 was 5.22. Further, in the experiment with 4T1 tumors, the median survival was 10 days, the “survival after 15 days of treatment” value was determined as 25% and the “Inhibition of tumor growth at 7 days” value is 67%. The “effect on tumor growth reduction compared with DX101” value with 4T1 tumors (p<0.01) is “superior effect”.
